# Columns and labels:
# Type in all cases: in vivo
# [1] = tested on: Veronica persica; assay: Post-emergence herbicidal action against VERPE; conditions: visual assessment about 3 weeks after treatment
# Procedure, shortened: (§1)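 Post-emergence greenhouse test; one-leaf stage, 2–3 wk post-sowing, sandy loam. Foliar spray of WP/EC in water, 600–800 l/ha, +0.2% wetting agent. Visual % action at ~3 wk vs untreated (100% = plants dead).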
# [2] = tested on: Veronica persica; assay: Pre-emergence herbicidal action against VERPE
# Procedure, shortened: (§2)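 Herbicidal effect was assessed 3 weeks after treatment by visual comparison with untreated controls, 100% denoting dead plants. Aqueous WP or EC preparations had been applied at 600 to 800 l/ha with 0.2% wetting agent to the soil covering freshly sown seeds.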
# [3] = tested on: Alopecurus myosuroides; assay: Pre-emergence herbicidal action against ALOMY; conditions: visual score after 3 weeks vs untreated controls
# Procedure, shortened: as §2
# [4] = tested on: Hordeum murinum; assay: Post-emergence herbicidal action against HORMU
# Procedure, shortened: as §1
# [5] = tested on: Echinochloa crus-galli; assay: Pre-emergence herbicidal action against ECHCG; conditions: visual score after 3 weeks vs untreated controls
# Procedure, shortened: as §2
# [6] = tested on: Avena fatua; assay: Pre-emergence herbicidal action against AVEFA; conditions: visual score after 3 weeks vs untreated controls
# Procedure, shortened: as §2
# [7] = tested on: Setaria viridis; assay: Pre-emergence herbicidal action against SETVI
# Procedure, shortened: as §2
# [8] = tested on: Avena fatua; assay: Post-emergence herbicidal action against AVEFA; conditions: visual assessment about 3 weeks after treatment
# Procedure, shortened: as §1
# [9] = tested on: Polygonum convolvulus; assay: Post-emergence herbicidal action against POLCO; conditions: 80 g/ha, visual assessment about 3 weeks after treatment
# Procedure, shortened: as §1
# [10] = tested on: Abutilon theophrasti; assay: Post-emergence herbicidal action against ABUTH
# Procedure, shortened: as §1
# [11] = tested on: Pharbitis purpurea; assay: Pre-emergence herbicidal action against PHBPU; conditions: visual score after 3 weeks vs untreated controls
# Procedure, shortened: as §2
# [12] = tested on: Polygonum convolvulus; assay: Pre-emergence herbicidal action against POLCO
# Procedure, shortened: as §2
# [13] = tested on: Cyperus esculentus; assay: Pre-emergence herbicidal action against CYPES; conditions: visual score after 3 weeks vs untreated controls
# Procedure, shortened: as §2
# [14] = tested on: Matricaria inodora; assay: Pre-emergence herbicidal action against MATIN; conditions: visual score after 3 weeks vs untreated controls
# Procedure, shortened: as §2
# [15] = tested on: Amaranthus retroflexus; assay: Pre-emergence herbicidal action against AMARE; conditions: visual score after 3 weeks vs untreated controls
# Procedure, shortened: as §2
# [16] = tested on: Stellaria media; assay: Post-emergence herbicidal action against STEME; conditions: visual assessment about 3 weeks after treatment
# Procedure, shortened: as §1
# [17] = tested on: Matricaria inodora; assay: Post-emergence herbicidal action against MATIN; conditions: visual assessment about 3 weeks after treatment
# Procedure, shortened: as §1
# [18] = tested on: Viola tricolor; assay: Post-emergence herbicidal action against VIOTR
# Procedure, shortened: as §1
# [19] = tested on: Abutilon theophrasti; assay: Pre-emergence herbicidal action against ABUTH; conditions: Dosage column 320 g/ha (heading prints 3200 g/ha); visual score after 3 weeks vs untreated controls
# Procedure, shortened: as §2
# [20] = tested on: Cyperus esculentus; assay: Post-emergence herbicidal action against CYPES; conditions: visual assessment about 3 weeks after treatment
# Procedure, shortened: as §1
# [21] = tested on: Viola tricolor; assay: Pre-emergence herbicidal action against VIOTR
# Procedure, shortened: as §2
# [22] = tested on: Lolium rigidum; assay: Post-emergence herbicidal action against LOLRI
# Procedure, shortened: as §1
# [23] = tested on: Echinochloa crus-galli; assay: Post-emergence herbicidal action against ECHCG; conditions: visual assessment about 3 weeks after treatment
# Procedure, shortened: as §1
# [24] = tested on: Lolium rigidum; assay: Pre-emergence herbicidal action against LOLRI
# Procedure, shortened: as §2
# [25] = tested on: Hordeum murinum; assay: Pre-emergence herbicidal action against HORMU; conditions: visual score after 3 weeks vs untreated controls
# Procedure, shortened: as §2
# [26] = tested on: Amaranthus retroflexus; assay: Post-emergence herbicidal action against AMARE; conditions: visual assessment about 3 weeks after treatment
# Procedure, shortened: as §1
# [27] = tested on: Setaria viridis; assay: Post-emergence herbicidal action against SETVI; conditions: visual assessment about 3 weeks after treatment
# Procedure, shortened: as §1
# [28] = tested on: Pharbitis purpurea; assay: Post-emergence herbicidal action against PHBPU; conditions: visual assessment about 3 weeks after treatment
# Procedure, shortened: as §1
# [29] = tested on: Stellaria media; assay: Pre-emergence herbicidal action against STEME
# Procedure, shortened: as §2
# [30] = tested on: Alopecurus myosuroides; assay: Post-emergence herbicidal action against ALOMY
# Procedure, shortened: as §1
compound,measurement,setting,value
CCN(C)C(=O)c1c(C(F)(F)F)ccc(C(=O)Nc2nnnn2C)c1Cl [Example 1-124],Post-emergence action against VERPE in %,[1]; 5 g/ha,80%
same,Post-emergence action against VERPE in %,[1]; 20 g/ha,80%
same,Post-emergence action against VERPE in %,[1]; 80 g/ha,100%
same,Pre-emergence action against VERPE,[2]; 80 g/ha,80%
same,Pre-emergence action against VERPE,[2]; 320 g/ha,100%
same,Pre-emergence action against ALOMY,[3]; 20 g/ha,80%
same,Pre-emergence action against ALOMY,[3]; 80 g/ha,90%
same,Pre-emergence action against ALOMY,[3]; 320 g/ha,100%
same,Post-emergence action against HORMU in %,[4]; 5 g/ha,80%
same,Post-emergence action against HORMU in %,[4]; 20 g/ha,90%
same,Post-emergence action against HORMU in %,[4]; 80 g/ha,100%
same,Pre-emergence action against ECHCG,[5]; 20 g/ha,80%
same,Pre-emergence action against ECHCG,[5]; 80 g/ha,100%
same,Pre-emergence action against ECHCG,[5]; 320 g/ha,100%
same,Pre-emergence action against AVEFA,[6]; 80 g/ha,80%
same,Pre-emergence action against AVEFA,[6]; 320 g/ha,100%
same,Pre-emergence action against SETVI,[7]; 20 g/ha,90%
same,Pre-emergence action against SETVI,[7]; 80 g/ha,100%
same,Pre-emergence action against SETVI,[7]; 320 g/ha,100%
same,Post-emergence action against AVEFA in %,[8]; 5 g/ha,80%
same,Post-emergence action against AVEFA in %,[8]; 20 g/ha,100%
same,Post-emergence action against AVEFA in %,[8]; 80 g/ha,100%
same,Post-emergence action against POLCO in %,[9],90%
same,Post-emergence action against ABUTH,[10]; 5 g/ha,100%
same,Post-emergence action against ABUTH,[10]; 20 g/ha,100%
same,Post-emergence action against ABUTH,[10]; 80 g/ha,100%
same,Pre-emergence action against PHBPU,[11]; 80 g/ha,80%
same,Pre-emergence action against PHBPU,[11]; 320 g/ha,90%
same,Pre-emergence action against POLCO,[12]; 80 g/ha,80%
same,Pre-emergence action against POLCO,[12]; 320 g/ha,80%
same,Pre-emergence action against CYPES,[13]; 80 g/ha,80%
same,Pre-emergence action against CYPES,[13]; 320 g/ha,90%
same,Pre-emergence action against MATIN,[14]; 20 g/ha,80%
same,Pre-emergence action against MATIN,[14]; 80 g/ha,90%
same,Pre-emergence action against MATIN,[14]; 320 g/ha,100%
same,Pre-emergence action against AMARE,[15]; 20 g/ha,90%
same,Pre-emergence action against AMARE,[15]; 80 g/ha,90%
same,Pre-emergence action against AMARE,[15]; 320 g/ha,100%
same,Post-emergence action against STEME in %,[16]; 5 g/ha,100%
same,Post-emergence action against STEME in %,[16]; 20 g/ha,100%
same,Post-emergence action against STEME in %,[16]; 80 g/ha,100%
same,Post-emergence action against MATIN in %,[17]; 20 g/ha,100%
same,Post-emergence action against MATIN in %,[17]; 80 g/ha,100%
same,Post-emergence action against VIOTR in %,[18]; 5 g/ha,100%
same,Post-emergence action against VIOTR in %,[18]; 20 g/ha,100%
same,Post-emergence action against VIOTR in %,[18]; 80 g/ha,100%
same,Pre-emergence action against ABUTH,[19],90%
same,Post-emergence action against CYPES in %,[20]; 20 g/ha,80%
same,Post-emergence action against CYPES in %,[20]; 80 g/ha,80%
same,Pre-emergence action against VIOTR,[21]; 80 g/ha,100%
same,Pre-emergence action against VIOTR,[21]; 320 g/ha,100%
same,Post-emergence action against LOLRI in %,[22]; 20 g/ha,90%
same,Post-emergence action against LOLRI in %,[22]; 80 g/ha,100%
same,Post-emergence action against ECHCG in %,[23]; 5 g/ha,100%
same,Post-emergence action against ECHCG in %,[23]; 20 g/ha,100%
same,Post-emergence action against ECHCG in %,[23]; 80 g/ha,100%
same,Pre-emergence action against LOLRI,[24]; 80 g/ha,80%
same,Pre-emergence action against LOLRI,[24]; 320 g/ha,100%
same,Pre-emergence action against HORMU,[25]; 80 g/ha,90%
same,Pre-emergence action against HORMU,[25]; 320 g/ha,90%
same,Post-emergence action against AMARE in %,[26]; 5 g/ha,100%
same,Post-emergence action against AMARE in %,[26]; 20 g/ha,100%
same,Post-emergence action against AMARE in %,[26]; 80 g/ha,100%
same,Post-emergence action against SETVI in %,[27]; 5 g/ha,100%
same,Post-emergence action against SETVI in %,[27]; 20 g/ha,100%
same,Post-emergence action against SETVI in %,[27]; 80 g/ha,100%
same,Post-emergence action against PHBPU in %,[28]; 5 g/ha,80%
same,Post-emergence action against PHBPU in %,[28]; 20 g/ha,90%
same,Post-emergence action against PHBPU in %,[28]; 80 g/ha,90%
same,Pre-emergence action against STEME,[29]; 20 g/ha,90%
same,Pre-emergence action against STEME,[29]; 80 g/ha,90%
same,Pre-emergence action against STEME,[29]; 320 g/ha,90%
same,Post-emergence action against ALOMY,[30]; 5 g/ha,90%
same,Post-emergence action against ALOMY,[30]; 20 g/ha,100%
same,Post-emergence action against ALOMY,[30]; 80 g/ha,100%

# Reference: patent publication US12599136B2, “Substituted isophthalic acid diamides and their use as herbicides” (Bayer Aktiengesellschaft, priority 2020, dated 2026)
